Experimental data from patent EP1268431B1 (Wyeth, priority 2000, dated 2001).
Where “and” joins values, the source holds several entries; their conditions need not be identical. Equal values may be shown once. Read-outs that look alike come from different tables or passages of the source.

How the values were obtained:
[1] = test system: Human adenocarcinoma cell line LoVo; experiment: Cell Based Screen for Inhibitors of Raf Kinase, LoVo cells; conditions: four days, SRB
Description: • Cell Lines: Human adenocarcinoma cell line LoVo which is known to be growth inhibited by low nM concentrations of a reference standard inhibitor of Ras and human adenocarcinoma cell line CaCo-2, which is known to be growth resistant to the same reference compound. • Cell Media: RPMI 1640 with 10% Fetal Bovine Serum supplemented with L-glutamine and Pennicilin/Streptomycin. • Compounds: Supplied usually as a 10 mM stock in 100% DMSO. • Normal Saline: 150 mM NaCl • Trichloroacetic Acid (TCA): 50% (w/v) in water • Sulforhodamine B (SRB): 0.4% (w/v) in 1% Acetic Acid • Tris Base: 10 mM in water
Cells are plated at 2000 cells per well for cell line LoVo and 1500 cells for cell line CaCo-2 in 96 well plates. Cells are plated in media (200 µl) and allowed to adhere overnight at 37° C. At 24 hours post plating, compounds are added directly at a volume of 0.5 µl. For the qualitative screen (compounds screened at 25 µM) compound is added directly to cells. For the quantitative screen, compound is first diluted in DMSO to generate concentrations of compound or reference standard of: 1, 5, 10 and 25 µM. It is advisable to make the dilutions in an identical 96 well plate so that compounds may be added using a multichannel micropipettor set at 0.5 µl. The cells are then incubated for four days after which the media is removed using a 12 well manifold by first tipping the plate forward at a 45 degree angle and then inserting the manifold in an upright orientation to prevent the tips of the manifold from disturbing cells at the bottom of the plate. 200 µl of normal saline is then added to each well using an 8 well multichannel pipettor, followed by the careful addition of 50 µl of 50% TCA. The plates are then incubated for 2 hours at 4 ° C, after which the supernatant is removed using the same technique as above and the plated washed twice with 200 µl water. The plates are then air dried and 50 µl of SRB stock solution is carefully added so that the entire bottom of each well is covered. This again may be used using an 8 well multichannel pipettor. The SRB is incubated with fixed cells for 15 minutes at room temperature after which the SRB is removed with the manifold as described above and the plates washed twice with 350 µl of 1% acetic acid per well each time.The plates are then air dried after which the bound SRB is released from protein by the addition of 200 µl of Tris base. Resolubilizing the SRB is aided by placing the plates on a rotator for 15-30 minutes. The absorbance of each well is determined at 550 or 562 nm using a microtiter plate reader.
Each compound or dilution thereof is performed in triplicate. Outliers are identified by visual inspection of the data. Each plate should have a "0" control (vehicle only).
Quantitative Assay: A standard curve is constructed by plotting the concentration of compound against the average absorbance calculated at that concentration. A curve is plotted and the concentration at which the curve passes through the 50% the absorbance mark seen in the "0" control well is the IC50 calculated for that compound. […]

[2] = test system: Rat2 fibroblasts stably transformed with a plasmid containing a CMV promotor controlled v-Src/Hu c-Src fusion gene; experiment: Anchorage Independent Src-transformed Fibroblast Proliferation Assay
c-Src = biological target: T1, c-Src (Homo sapiens, UniProt P12931); experiment: c-Src Kinase Assay (ELISA format); type: biochemical
T1 construct: purchased Upstate Biotechnologies
T1 sequence (P12931 whole entry, species assumed): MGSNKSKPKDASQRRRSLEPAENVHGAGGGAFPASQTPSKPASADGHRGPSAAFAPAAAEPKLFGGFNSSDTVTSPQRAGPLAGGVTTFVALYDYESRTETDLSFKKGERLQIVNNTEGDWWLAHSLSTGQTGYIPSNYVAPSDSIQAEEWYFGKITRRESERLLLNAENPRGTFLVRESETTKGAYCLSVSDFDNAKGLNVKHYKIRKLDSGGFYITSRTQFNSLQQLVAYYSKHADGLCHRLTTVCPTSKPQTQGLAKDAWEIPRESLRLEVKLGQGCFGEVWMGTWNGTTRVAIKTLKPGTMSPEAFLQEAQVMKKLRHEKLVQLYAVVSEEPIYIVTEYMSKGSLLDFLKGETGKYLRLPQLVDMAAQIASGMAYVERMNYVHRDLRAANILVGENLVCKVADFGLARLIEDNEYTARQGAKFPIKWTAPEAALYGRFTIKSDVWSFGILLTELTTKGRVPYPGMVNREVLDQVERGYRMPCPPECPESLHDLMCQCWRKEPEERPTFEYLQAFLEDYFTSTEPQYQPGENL
Summary of the method: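 Partially purified Src preincubated with compound and biotinylated peptide 10 min at 30 °C in Tris-HCl pH 7.5 with MgCl2, EGTA, vanadate; ATP-started reaction ran 1 h at 30 °C, EDTA-stopped. Phosphopeptide captured on streptavidin, detected by HRP anti-phosphotyrosine; % inhibition = (1 − Abs/Abs(max)) × 100.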

[3] = Rattus norvegicus, Rat2, 120 h, read-out: anch-indep src-tx fib IC50, suspension growth, MTS on Day 5
[4] = read-out: anch-indep src-tx fib IC50, suspension growth, MTS on Day 5

| SMILES | IC50 (c-Src) | IC50 [2, 3] [nM] | further results |
| --- | --- | --- | --- |
| Cn1ccnc1Sc1ccc(Nc2c(C#N)cnc3cc(-c4ccc(N5CCOCC5)nc4)ccc23)cc1Cl [Example 190, 4-{3-chloro-4-[(1-methyl-1H-imidazol-2-yl)sufanyl]anilino}-7-[6-(4-morpholinyl)-3-pyridinyl]-3-quinolinecarbonitrile] |  |  | IC50 ([1]; Homo sapiens, 96 h): 2 nM |
| Cn1ccnc1Sc1ccc(Nc2c(C#N)cnc3cc(-c4cc(CN5CCOCC5)c(CN5CCOCC5)s4)ccc23)cc1Cl [Example 169, 7-[4,5-bis(4-morpholinylmethyl)-2-thienyl]-4-{3-chloro-4-[(1-methyl-1H-imidazol-2-yl)sulfanyl]anilino}-3-quinolinecarbonitrile] |  |  | IC50 ([1]; Homo sapiens, 96 h): 40 nM; IC50 [1]: 47 nM |
| CCN1CCN(Cc2ccc(-c3ccc4c(Nc5ccc(Sc6nccn6C)c(Cl)c5)c(C#N)cnc4c3)nc2)CC1 [Example 171, 4-{3-chloro-4-[(1-methyl-1H-imidazol-2-yl)sulfanyl]anilino}-7-{5-[(4-ethyl-1-piperazinyl)methyl]-2-pyridinyl}-3-quinolinecarbonitrile] |  |  | IC50 ([1]; Homo sapiens, 96 h): 8 nM; IC50 [1]: 5 nM and < 5 nM |
| N#Cc1cnc2cc(C=CCCCCN3CCOCC3)ccc2c1Nc1ccc(Cl)cc1Cl (mixture of isomers) [Example 16, 4-(2,4-Dichloroanilino)-7-[(E/Z)-6-(4-morpholinyl)-1-hexenyl]-3-quinolinecarbonitrile] | 44 nM | > 10000 |  |
| COc1cc(Nc2c(C#N)cnc3cc(-c4cccc(CCN5CCOCC5)c4)c(OC)cc23)c(Cl)cc1Cl [Example 38, 4-(2,4-Dichloro-5-methoxyanilino)-6-methoxy-7-{3-[2-(4-morpholinyl)ethyl]phenyl}-3-quinolinecarbonitrile] | 81 nM | 12700 | IC50 [2, 4]: 10600 nM |
| COc1cc(Nc2c(C#N)cnc3cc(-c4ccc(N5CCOCC5)cc4)ccc23)c(Cl)cc1Cl [Example 67, 4-(2,4-Dichloro-5-methoxyanilino)-7-[4-(4-morpholinyl)phenyl]-3-quinolinecarbonitrile] | 3 nM and 4.9 nM | 110 |  |
| CCOC(=O)C1CCCCN1Cc1ccc(-c2ccc3c(Nc4cc(OC)c(Cl)cc4Cl)c(C#N)cnc3c2)cc1 (centres unmarked) [Example 145, ethyl 1-{4-[3-cyano-4-(2,4-dichloro-5-methoxyanilino)-7-quinolinyl]benzyl}-2-piperidinecarboxylate] |  | > 10000 | inhibition at 0.01 µM (c-Src; at 10 nM): 17% |
| COc1cc(Nc2c(C#N)cnc3cc(C#Cc4ccccn4)ccc23)c(Cl)cc1Cl [Example 91, 4-(2,4-Dichloro-5-methoxyanilino)-7-[2-(2-pyridinyl)ethynyl]-3-quinolinecarbonitrile] | 3.1 nM | > 10000 |  |
| COc1cc(Nc2c(C#N)cnc3cc(-c4ccc(CN5CCCC5C(N)=O)cc4)ccc23)c(Cl)cc1Cl (stereo in doubt) [Example 84, (2R)-1-{4-[3-Cyano-4-(2,4-dichloro-5-methoxyanilino)-7-quinolinyl]benzyl}-2-pyrrolidinecarboxamide] | 7.5 nM |  | IC50 ([2]; Rattus norvegicus, Rat2, 120 h, read-out: anch-indep src-tx fib IC50): 770 nM |
| COc1cc(Nc2c(C#N)cnc3cc(-c4ncccc4CN4CCOCC4)ccc23)c(Cl)cc1Cl [Example 111, 4-(2,4-Dichloro-5-methoxyanilino)-7-[3-(morpholin-4-ylmethyl)-pyridin-2-yl]-3-quinolinecarbonitrile] | 410 nM | > 10000 |  |
| COc1ccc(C#Cc2ccc3c(Nc4cc(OC)c(Cl)cc4Cl)c(C#N)cnc3c2)cc1 [Example 90, 4-(2,4-Dichloro-5-methoxyanilino)-7-[2-(4-methoxyphenyl)ethynyl]-3-quinolinecarbonitrile] |  | > 10000 | inhibition at 0.1 µM (c-Src; at 100 nM): 10% |
| COc1cc(Nc2c(C#N)cnc3cc(-c4ccc(CN5CCCC(C(=O)O)C5)cc4)ccc23)c(Cl)cc1Cl (centres unmarked) [Example 149, 1-(4-{3-cyano-4-[(2,4-dichloro-5-methoxyphenyl)amino]-7-quinolinyl}benzyl)-3-piperidinecarboxylic acid] | 0.67 nM | 2500 |  |
| COc1cc(Nc2c(C#N)cnc3cc(-c4ccc(CN5CCC(C(=O)O)CC5)cc4)ccc23)c(Cl)cc1Cl [Example 237, 1-{4-[3-cyano-4-(2,4-dichloro-5-methoxyanilino)-7-quinolinyl]benzyl}-4-piperidinecarboxylic acid] | 0.18 nM (2×) and 0.55 nM | 490 | IC50 [2, 4]: 520 nM and 410 nM |

More lines, main results first:

| IC50 (c-Src) | SMILES | IC50 [2, 3] [nM] | further results |
| --- | --- | --- | --- |
| 6.8 nM | COc1cc(Nc2c(C#N)cnc3cc(-c4ccc(CCCCN5CCOCC5)s4)ccc23)c(Cl)cc1Cl [Example 22, 4-(2,4-Dichloro-5-methoxyanilino)-7-{5-[4-(4-morpholinyl)butyl]-2-thienyl}-3-quinolinecarbonitrile] | 600 |  |
| 76 nM | COc1cc(Nc2c(C#N)cnc3cc(-c4ccc(CO)n4C)ccc23)c(Cl)cc1Cl [Example 162, 4-(2,4-dichloro-5-methoxyanilino)-7-[5-(hydroxymethyl)-1-methyl-1H-pyrrol-2-yl]-3-quinolinecarbonitrile] | > 10000 |  |
| 14 nM | COc1cc(Nc2c(C#N)cnc3cc(-c4ccc[nH]4)ccc23)c(Cl)cc1Cl [Example 104, 4-(2,4-Dichloro-5-methoxyanilino)-7-(1H-pyrrol-2-yl)-3-quinolinecarbonitrile] | 560 |  |
| 10 nM | COc1cc(Nc2c(C#N)cnc3cc(-c4cccc(CN5CCN(C)CC5)c4)ccc23)c(Cl)cc1Cl [Example 113, 4-(2,4-Dichloro-5-methoxyanilino)-7-{3-[(4-methyl-1-piperazinyl)methyl]phenyl}-3-quinolinecarbonitrile] | 1400 |  |
| 950 nM | COc1cc(Nc2c(C#N)cnc3cc(-c4cncn4CCN4CCOCC4)ccc23)c(Cl)cc1Cl [Example 64, 4-(2,4-Dichloro-5-methoxyanilino)-7-{1-[2-(4-morpholinyl)ethyl]-1H-imidazol-5-yl}-3-quinolinecarbonitrile] | > 10000 |  |
| 78 nM | COc1cc(Nc2c(C#N)cnc3cc(-c4ccc(CNCCS(=O)(=O)c5ccccc5)n4C)ccc23)c(Cl)cc1Cl [Example 72, 4-(2,4-Dichloro-5-methoxyanilino)-7-[1-methyl-5-({[2-(phenylsulfonyl)ethyl]amino}methyl)-1H-pyrrol-2-yl]-3-quinolinecarbonitrile] | > 10000 |  |
| 58 nM and 75 nM | COc1cc(Nc2c(C#N)cnc3cc(-c4ccc(CNCCS(C)(=O)=O)n4C)ccc23)c(Cl)cc1Cl [Example 73, 4-(2,4-Dichloro-5-methoxyanilino)-7-[1-methyl-5-({[2-(methylsulfonyl)ethyl]amino}methyl)-1H-pyrrol-2-yl]-3-quinolinecarbonitrile] | > 10000 |  |
| 4.3 nM | COc1cc(Nc2c(C#N)cnc3cc(-c4ccc(C5OCCO5)o4)ccc23)c(Cl)cc1Cl [Example 5, 4-(2,4-Dichloro-5-methoxyanilino)-7-[5-(1,3-dioxolan-2-yl)-2-furyl]-3-quinolinecarbonitrile] | 200 |  |
| > 1000 nM | COc1cc(Nc2c(C#N)cnc3cc(-c4sccc4C=O)ccc23)c(Cl)cc1Cl [Example 163, 4-(2,4-dichloro-5-methoxyanilino)-7-(3-formyl-2-thienyl)-3-quinolinecarbonitrile] | > 10000 |  |
| 0.46 nM | CCN(CC)Cc1ccc(-c2ccc3c(Nc4cc(OC)c(Cl)cc4Cl)c(C#N)cnc3c2)cc1 [Example 87, 4-(2,4-Dichloro-5-methoxyanilino)-7-{4-[(diethylamino)methyl]phenyl}-3-quinolinecarbonitrile] | 220 |  |
